Experimental data as given in patent US6525001B1, “Substituted pyrimidine and pyridine herbicides” (Mid-American Commercialization Corporation, priority 1997, dated 2003).

Columns and labels:
Assay type in all cases: in vivo
[1] = tested on: sourgrass (Trichachne insularis); assay: Test E pre-/postemergence/post directed; design: key: 0 is no effect; 100 is complete control
Excerpt: (§1) Seeds, tubers, or plant parts of alexandergrass (Brachiaria plantaginea), annual bluegrass (Poa annua), arrowleaf sida (Sida rhombifolia), barnyardgrass (Echinochloa crus-galli), bermudagrass (Cynodon dactylon), citrus (Citrus sinensis), common chickweed (Stellaria media), common purslane (Portulaca oleracea), common ragweed (Ambrosia elatior), common groundsel (Senecio vulgaris), dallisgrass (Paspalum dilatatum), goosegrass (Eleusine indica), green foxtail (Setaria viridis), guineagrass (Panicum maximum), itchgrass (Rottboellia exaltata), johnson grass (Sorghum halepense), kochia (Kochia scoparia), large crabgrass (Digitaria sanguinalis), leafy spurge (Euphorbia esula), pitted morningglory (Ipomoea lacunosa), purple nutsedge (Cyperus rotundus), quackgrass (Agropyron repens), Russian thistle (Salsola kali), sandbur (Cenchrus echinatus), sourgrass (Trichachne insularis), Spanishneedles (Bidens bipinnata), sugarcane (Saccharum officinarum), surinam grass (Brachiaria decumbens) and tall mallow (Malva sylvestris) were planted into greenhouse pots of flats containing greenhouse planting medium. Plant species were grown grown in separate pots or individual compartments. Preemergence applications were made within one day of planting the seed or plant part. Postemergence applications were applied when the plants were in the two to four leaf stage (three to twenty cm).
(§2) Test chemicals were formulated in a non-phytotoxic solvent mixture which included a surfactant and applied preemergence to the soil surface, postemergence to the plants or as a post directed spray to plants and soil at the base of the target species. Untreated control plants and treated plants were placed in the greenhouse and visually evaluated for injury 13 to 21 days after herbicide application. Plant response ratings, summarized in Table E, are based on a 0 to 100 scale where 0 is no injury and 100 is complete control. A dash (−) response means no test result.

[2] = tested on: common groundsel (Senecio vulgaris); assay: Test E pre-/postemergence/post directed; design: key: 0 is no effect; 100 is complete control; conditions: PREEMERGENCE
Excerpt: as §1, §2

[3] = tested on: common purslane (Portulaca oleracea); assay: Test E pre-/postemergence/post directed; design: key: 0 is no effect; 100 is complete control
Excerpt: as §1, §2

[4] = tested on: bermudagrass (Cynodon dactylon); assay: Test E pre-/postemergence/post directed; design: key: 0 is no effect; 100 is complete control; conditions: PREEMERGENCE, Rate 250 g/ha
Excerpt: as §1, §2

[5] = tested on: tall mallow (Malva sylvestris); assay: Test E pre-/postemergence/post directed; design: key: 0 is no effect; 100 is complete control; conditions: PREEMERGENCE
Excerpt: as §1, §2

rape (Brassica napus) = assay: Test B pre-/postemergence; design: key: 0 is no effect; 10 is complete control
Method in brief: (§3)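 Compounds in a surfactant-containing, non-phytotoxic solvent blend are applied to freshly planted seed (preemergence) and, concurrently, to seedlings of 2 to 18 cm at 1–4 leaves (postemergence). Plants stay in the greenhouse twelve to sixteen days and are then scored visually from 0 (no effect) to 10 (complete control).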

[6] = tested on: bedstraw (Galium aparine); assay: Test B pre-/postemergence; design: key: 0 is no effect; 10 is complete control
Method in brief: as §3

[7] = tested on: bamyardgrass (Echinochloa crus-galli); assay: Test B flood test
Method in brief: (§4)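 Read-out is a visual response score from 0 (no effect) to 10 (complete control), assigned by comparison with untreated controls. Treatment was applied at the 2-leaf stage, and plants stayed in the greenhouse for twelve to sixteen days before scoring.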

[8] = tested on: duck salad (Heteranthera limosa); assay: Test B flood test
Method in brief: as §4

[9] = tested on: smallflower flatsedge (Cyperus difformis); assay: Test B flood test
Method in brief: as §4

rice (Oryza sativa) = assay: Test B flood test
Method in brief: as §4

[10] = tested on: large crabgrass (Digitaria sanguinalis); assay: Test E pre-/postemergence/post directed; design: key: 0 is no effect; 100 is complete control; conditions: PREEMERGENCE
Excerpt: as §1, §2

[11] = tested on: lambsquarters (Chenopodium album); assay: Test C; design: key: 0 was no effect; 100 was complete control; conditions: PREEMERGENCE
[12] = Rate 250 g/ha, Postemergence (so in the source)
[13] = Rate 62 g/ha, Postemergence (flood test)
[14] = Rate 125 g/ha, Postemergence, flood test
[15] = Rate 250 g/ha, Postemergence (flood test species)
[16] = Rate 125 g/ha, Postemergence section (flood test species)

Cc1cnc(-n2cnc(C(F)(F)F)c2)nc1Cc1cccc(C(F)(F)F)c1 [Compound 44]
Plant response rating, Sourgrass ([1]; POSTEMERGENCE, Rate 125 g/ha): 10 | Plant response rating, Sourgrass ([1]; POSTEMERGENCE, Rate 250 g/ha): 20 | Plant response rating, Sourgrass ([1]; PREEMERGENCE, Rate 32 g/ha): 80 | Plant response rating, Sourgrass ([1]; PREEMERGENCE, Rate 64 g/ha): 100 | Plant response rating, Sourgrass ([1]; PREEMERGENCE, Rate 125 g/ha): 100 | Plant response rating, Sourgrass ([1]; PREEMERGENCE, Rate 250 g/ha): 100 | Plant response rating, Com. groundsel ([2]; Rate 64 g/ha): 100 | Plant response rating, Com. groundsel ([2]; Rate 125 g/ha): 100 | Plant response rating, Com. groundsel ([2]; Rate 250 g/ha): 100 | Plant response rating, Com. purslane ([3]; POSTEMERGENCE, Rate 125 g/ha): 70 | Plant response rating, Com. purslane ([3]; POSTEMERGENCE, Rate 250 g/ha): 70 | Plant response rating, Com. purslane ([3]; PREEMERGENCE, Rate 32 g/ha): 80 | Plant response rating, Com. purslane ([3]; PREEMERGENCE, Rate 64 g/ha): 100 | Plant response rating, Com. purslane ([3]; PREEMERGENCE, Rate 125 g/ha): 100 | Plant response rating, Com. purslane ([3]; PREEMERGENCE, Rate 250 g/ha): 100 | Plant response rating, Bermudagrass [4]: 100 | Plant response rating, Tall Mallow ([5]; Rate 32 g/ha): 80 | Plant response rating, Tall Mallow ([5]; Rate 64 g/ha): 80 | Plant response rating, Tall Mallow ([5]; Rate 125 g/ha): 98 | Plant response rating, Tall Mallow ([5]; Rate 250 g/ha): 98 | Plant response rating, Rape (rape (Brassica napus); Rate 62 g/ha, Postemergence): 9 | Rape plant response rating (rape (Brassica napus); Rate 62 g/ha, Preemergence): 4 | Rape plant response rating (rape (Brassica napus); Rate 125 g/ha, Postemergence): 10 | Rape plant response rating (rape (Brassica napus); Rate 125 g/ha, Preemergence): 8 | Plant response rating, Rape (rape (Brassica napus); Rate 250 g/ha, Postemergence): 10 | Plant response rating, Rape (rape (Brassica napus); [12]): 10 | Plant response rating, Bedstraw ([6]; Rate 62 g/ha, Postemergence): 8 | Bedstraw plant response rating ([6]; Rate 62 g/ha, Preemergence): 4 | Plant response rating, Bedstraw ([6]; Rate 125 g/ha, Postemergence): 9 | Bedstraw plant response rating ([6]; Rate 125 g/ha, Preemergence): 5 | Plant response rating, Bedstraw ([6]; Rate 250 g/ha, Postemergence): 9 | Plant response rating, Bedstraw [6, 12]: 10 | Plant response rating, Barnyardgrass [7, 13]: 3 | Plant response rating, Barnyardgrass [7, 14]: 4 | Plant response rating, Barnyardgrass [7, 15]: 4 | Plant response rating, Ducksalad [8, 13]: 4 | Plant response rating, Ducksalad [8, 14]: 7 | Plant response rating, Ducksalad [8, 15]: 9 | Plant response rating, S. Flatsedge [9, 13]: 9 | S. Flatsedge plant response rating [9, 16]: 9 | Plant response rating, S. Flatsedge [9, 15]: 9 | Plant response rating, Rice (rice (Oryza sativa); [13]): 5 | Rice plant response rating (rice (Oryza sativa); [16]): 6 | Plant response rating, Rice (rice (Oryza sativa); [15]): 7

COc1cnc(-c2ccc(C(F)(F)F)cc2)nc1Cc1cccc(C(F)(F)F)c1 [Compound 23]
Plant response rating, Sourgrass ([1]; POSTEMERGENCE, Rate 250 g/ha): 30 | Plant response rating, Sourgrass ([1]; PREEMERGENCE, Rate 32 g/ha): 98 | Plant response rating, Sourgrass ([1]; PREEMERGENCE, Rate 64 g/ha): 98 | Plant response rating, Sourgrass ([1]; PREEMERGENCE, Rate 125 g/ha): 100 | Plant response rating, Sourgrass ([1]; PREEMERGENCE, Rate 250 g/ha): 100 | Plant response rating, Com. groundsel ([2]; Rate 32 g/ha): 100 | Plant response rating, Com. groundsel ([2]; Rate 64 g/ha): 100 | Plant response rating, Com. groundsel ([2]; Rate 125 g/ha): 100 | Plant response rating, Com. groundsel ([2]; Rate 250 g/ha): 100 | Plant response rating, Com. purslane ([3]; POSTEMERGENCE, Rate 250 g/ha): 50 | Plant response rating, Com. purslane ([3]; PREEMERGENCE, Rate 32 g/ha): 100 | Plant response rating, Com. purslane ([3]; PREEMERGENCE, Rate 64 g/ha): 100 | Plant response rating, Com. purslane ([3]; PREEMERGENCE, Rate 125 g/ha): 100 | Plant response rating, Com. purslane ([3]; PREEMERGENCE, Rate 250 g/ha): 100 | Plant response rating, Tall Mallow ([5]; Rate 32 g/ha): 80 | Plant response rating, Tall Mallow ([5]; Rate 64 g/ha): 85 | Plant response rating, Tall Mallow ([5]; Rate 125 g/ha): 85 | Plant response rating, Tall Mallow ([5]; Rate 250 g/ha): 90 | Plant response rating, Large crabgrass ([10]; Rate 125 g/ha): 100 | Plant response rating, Large crabgrass ([10]; Rate 250 g/ha): 100 | Plant response rating, Rape (rape (Brassica napus); Rate 62 g/ha, Postemergence): 10 | Rape plant response rating (rape (Brassica napus); Rate 62 g/ha, Preemergence): 1 | Plant response rating, Rape (rape (Brassica napus); Rate 125 g/ha, Postemergence): 10 | Rape plant response rating (rape (Brassica napus); Rate 125 g/ha, Preemergence): 3 | Plant response rating, Rape (rape (Brassica napus); Rate 250 g/ha, Postemergence): 10 | Plant response rating, Rape (rape (Brassica napus); Rate 250 g/ha, Preemergence): 7 | Plant response rating, Bedstraw ([6]; Rate 62 g/ha, Postemergence): 9 | Plant response rating, Bedstraw ([6]; Rate 125 g/ha, Postemergence): 9 | Bedstraw plant response rating ([6]; Rate 125 g/ha, Preemergence): 8 | Plant response rating, Bedstraw ([6]; Rate 250 g/ha, Postemergence): 9 | Plant response rating, Bedstraw ([6]; Rate 250 g/ha, Preemergence): 9 | Plant response rating, Barnyardgrass [7, 13]: 4 | Plant response rating, Barnyardgrass [7, 14]: 5 | Plant response rating, Barnyardgrass [7, 15]: 6 | Plant response rating, Ducksalad [8, 13]: 2 | Plant response rating, Ducksalad [8, 14]: 4 | Plant response rating, Ducksalad [8, 15]: 6 | Plant response rating, S. Flatsedge [9, 13]: 4 | Plant response rating, S. Flatsedge [9, 14]: 8 | Plant response rating, S. Flatsedge [9, 15]: 9 | Plant response rating, Rice (rice (Oryza sativa); [13]): 3 | Plant response rating, Rice (rice (Oryza sativa); [14]): 4 | Plant response rating, Rice (rice (Oryza sativa); [15]): 5 | Plant response rating, Lambsquarters ([11]; Rate 35 g/ha): 60 | Plant response rating, Lambsquarters ([11]; Rate 70 g/ha): 100 | Plant response rating, Lambsquarters ([11]; Rate 140 g/ha): 100
